The AC50 is the midpoint of the concentration-response curve, whichever way the signal moves. As usually defined, the EC50 is the concentration giving half of the maximal effect.

Calls of active or inactive are those of the source.

In test [1] the target is Glucose-6-phosphate 1-dehydrogenase (Homo sapiens, UniProt P11413). Put plainly: human G6PD enzyme inhibitors, dose response, selectivity assay for P. falciparum G6PD inhibitor project, biochemical, fluorescence (AID 504792). Format: functional.
Chain of Glucose-6-phosphate 1-dehydrogenase (P11413 whole entry, the tested form may be a part): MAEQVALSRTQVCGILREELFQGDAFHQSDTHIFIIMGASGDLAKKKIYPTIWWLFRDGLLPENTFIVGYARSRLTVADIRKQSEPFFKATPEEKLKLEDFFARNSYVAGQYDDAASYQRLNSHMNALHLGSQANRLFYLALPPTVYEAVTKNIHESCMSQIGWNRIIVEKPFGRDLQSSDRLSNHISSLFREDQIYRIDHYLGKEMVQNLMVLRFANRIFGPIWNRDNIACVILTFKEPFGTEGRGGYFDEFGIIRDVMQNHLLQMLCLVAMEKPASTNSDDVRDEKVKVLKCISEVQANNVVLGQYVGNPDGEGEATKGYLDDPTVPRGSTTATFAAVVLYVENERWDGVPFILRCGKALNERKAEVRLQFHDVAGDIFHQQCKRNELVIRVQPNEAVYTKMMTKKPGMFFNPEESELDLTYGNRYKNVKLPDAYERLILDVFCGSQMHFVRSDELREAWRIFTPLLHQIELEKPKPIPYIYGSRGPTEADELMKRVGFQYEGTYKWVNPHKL
Test [2] can be described thus: off-target signal loss in HeLa-CEM21 co-culture – HeLa F-luc CTL cells, cherry-picked, counter-screen for HIV-1 Env fusion inhibitor project, dose response (AID 652040).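 Further: potency for signal decrease marking cytotoxic or nonspecific inhibition.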 In kind it is functional, cell-based.
The nature of test [3]: ZM109 Env clade C HIV-1 fusion inhibitors, dose response, HeLa effector, CEM target cells, luciferase, cherry-pick (AID 652058). In kind it is functional, cell-based.
Test [4] in a line: inhibitors of clade B AD8 Env fusion, dose response, cell-based, cherry-pick (AID 652062).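 Further: luciferase signal from cell-cell fusion driven by HIV-1 clade B AD8 Env; potency is for inhibitors of fusion seen as a drop in luminescence.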 In kind it is functional.
Test [5] is described as follows: inhibitors of HIV Env-driven cell fusion, dose response, cherry-pick (AID 652057). Format: functional, cell-based.
For test [6], the target named is T1, Mitochondrial peptide methionine sulfoxide reductase (Bos taurus, UniProt P54149). Format: functional.
T1 sequence (P54149 whole entry, the tested form may be a part): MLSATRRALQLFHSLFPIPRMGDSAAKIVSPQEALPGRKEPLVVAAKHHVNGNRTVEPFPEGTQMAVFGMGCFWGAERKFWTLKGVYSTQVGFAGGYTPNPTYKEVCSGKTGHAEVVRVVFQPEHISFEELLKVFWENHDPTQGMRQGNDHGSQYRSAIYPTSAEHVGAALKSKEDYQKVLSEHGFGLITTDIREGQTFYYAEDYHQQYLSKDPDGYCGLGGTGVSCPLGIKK
Test [7] can be described thus: CEM21 lymphoblast cell cytotoxicity, dose response, cytotoxicity control for viral fusion inhibitor project, CellTiter-Glo luminescence, cherry-picked (AID 652042).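 Further: potency for signal decrease meaning cytotoxicity.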 Format: functional, cell-based. A general note: ATP-based viability assays read luminescence as a measure of living cells.
Test [8] has as its target T1, Mitochondrial peptide methionine sulfoxide reductase. Briefly: Absorbance-based biochemical high throughput dose response assay for activators of Methionine sulfoxide reductase A (MsrA). Format: functional.
Test [9] in a line: inhibitors of SNCA 5'UTR-driven reporter translation, confirmation, H4 neuroglioma cells, luminescence (AID 1988). In kind it is functional, cell-based.
The target in test [10] is T2, Histone-lysine N-methyltransferase NSD2 (Homo sapiens, UniProt O96028).
T2 sequence (O96028 whole entry): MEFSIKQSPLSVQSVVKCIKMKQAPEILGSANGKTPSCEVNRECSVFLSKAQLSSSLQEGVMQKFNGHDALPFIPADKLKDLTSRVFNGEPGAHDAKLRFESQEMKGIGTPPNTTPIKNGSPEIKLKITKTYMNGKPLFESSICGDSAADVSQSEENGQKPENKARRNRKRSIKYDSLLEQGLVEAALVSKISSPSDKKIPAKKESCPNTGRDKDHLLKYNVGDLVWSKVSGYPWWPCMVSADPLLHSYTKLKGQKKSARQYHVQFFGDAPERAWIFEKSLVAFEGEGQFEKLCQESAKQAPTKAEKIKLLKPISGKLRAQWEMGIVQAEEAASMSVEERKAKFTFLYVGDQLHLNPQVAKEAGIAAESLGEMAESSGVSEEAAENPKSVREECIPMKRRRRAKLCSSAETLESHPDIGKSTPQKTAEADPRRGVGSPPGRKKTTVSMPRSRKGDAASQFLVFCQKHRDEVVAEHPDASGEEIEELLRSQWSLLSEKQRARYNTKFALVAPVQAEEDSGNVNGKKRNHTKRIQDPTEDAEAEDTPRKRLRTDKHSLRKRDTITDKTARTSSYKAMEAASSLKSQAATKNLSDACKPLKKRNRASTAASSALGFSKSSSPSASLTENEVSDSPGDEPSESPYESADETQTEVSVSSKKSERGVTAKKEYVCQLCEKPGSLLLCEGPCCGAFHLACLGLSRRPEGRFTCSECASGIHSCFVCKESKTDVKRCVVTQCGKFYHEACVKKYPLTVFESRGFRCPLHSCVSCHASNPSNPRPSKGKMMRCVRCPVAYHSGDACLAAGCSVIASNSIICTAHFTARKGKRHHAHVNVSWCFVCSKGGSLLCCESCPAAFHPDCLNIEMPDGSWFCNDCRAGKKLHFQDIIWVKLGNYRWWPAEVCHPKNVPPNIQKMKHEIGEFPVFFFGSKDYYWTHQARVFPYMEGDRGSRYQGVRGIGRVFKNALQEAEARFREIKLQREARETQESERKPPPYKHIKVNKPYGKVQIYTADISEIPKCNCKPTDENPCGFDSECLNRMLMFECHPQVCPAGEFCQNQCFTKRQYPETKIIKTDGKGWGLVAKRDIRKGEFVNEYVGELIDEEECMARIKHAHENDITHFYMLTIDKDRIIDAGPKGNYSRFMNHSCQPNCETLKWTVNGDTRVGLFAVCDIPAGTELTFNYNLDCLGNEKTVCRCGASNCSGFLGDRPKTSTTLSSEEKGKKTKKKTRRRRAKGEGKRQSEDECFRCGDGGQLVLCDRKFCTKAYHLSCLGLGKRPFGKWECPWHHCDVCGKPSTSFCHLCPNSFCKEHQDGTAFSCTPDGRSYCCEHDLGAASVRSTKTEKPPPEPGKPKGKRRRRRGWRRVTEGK
Format: biochemical.

In test [11] the target is T3, Replicative DNA helicase DnaB (Mycobacterium tuberculosis, UniProt P9WMR3).
T3 sequence (P9WMR3 whole entry): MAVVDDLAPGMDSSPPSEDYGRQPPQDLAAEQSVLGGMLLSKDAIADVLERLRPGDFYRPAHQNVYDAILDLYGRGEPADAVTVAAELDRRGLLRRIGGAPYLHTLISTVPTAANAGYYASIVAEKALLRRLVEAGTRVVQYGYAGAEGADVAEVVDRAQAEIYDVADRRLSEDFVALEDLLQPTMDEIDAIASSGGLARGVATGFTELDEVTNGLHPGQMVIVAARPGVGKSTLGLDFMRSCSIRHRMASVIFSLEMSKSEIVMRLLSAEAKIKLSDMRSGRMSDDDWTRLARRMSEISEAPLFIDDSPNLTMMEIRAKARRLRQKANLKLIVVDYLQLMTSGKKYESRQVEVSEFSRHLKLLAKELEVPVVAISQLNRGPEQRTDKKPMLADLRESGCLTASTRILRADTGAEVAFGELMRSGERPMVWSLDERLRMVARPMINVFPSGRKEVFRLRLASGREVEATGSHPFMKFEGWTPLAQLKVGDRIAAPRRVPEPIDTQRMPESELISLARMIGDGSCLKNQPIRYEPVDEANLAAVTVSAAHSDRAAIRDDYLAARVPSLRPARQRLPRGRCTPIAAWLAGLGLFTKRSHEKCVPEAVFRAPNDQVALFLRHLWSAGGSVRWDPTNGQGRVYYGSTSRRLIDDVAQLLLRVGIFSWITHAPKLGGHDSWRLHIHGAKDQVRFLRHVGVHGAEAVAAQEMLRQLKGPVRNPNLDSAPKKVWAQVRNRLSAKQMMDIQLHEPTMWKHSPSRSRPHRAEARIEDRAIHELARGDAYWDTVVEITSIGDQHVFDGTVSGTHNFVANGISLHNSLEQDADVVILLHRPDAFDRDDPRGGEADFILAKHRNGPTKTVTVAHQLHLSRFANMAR
Briefly: DnaB intein splicing inhibitors, dose response, biochemical, cell-free fluorescence (AID 449749). In kind it is functional.

The nature of test [12]: Luminescence Cell-Based Dose Response HTS to Identify Inhibitors of 5'UTR Stem-Loop Driven Prion Protein mRNA Translation in H4 Neuroglioblastoma Cells. [Related pubchem assays: 1827 (Project Summary), 1813 (Primary HTS)]. Format: functional.
Test [13] can be described thus: inhibitors of firefly luciferase expression or activity, dose response, H4 neuroglioma cells, luminescence (AID 1990). Format: functional, cell-based.
Another test concerns INS1. Briefly: beta cell apoptosis inhibitors, cytokine rescue, dose response, luminescence, retest (AID 449756).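 Further: cell death triggered by IL-1 beta plus TNF-alpha plus IFN-gamma mixture; protective hits raise ATP signal compared with cytokine alone wells.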 Format: functional, cell-based. The conditions noted are these: Rattus norvegicus.
In a further test the target is T4, Protein RecA (Mycobacterium tuberculosis, UniProt P9WHJ3).
T4 sequence (P9WHJ3 whole entry): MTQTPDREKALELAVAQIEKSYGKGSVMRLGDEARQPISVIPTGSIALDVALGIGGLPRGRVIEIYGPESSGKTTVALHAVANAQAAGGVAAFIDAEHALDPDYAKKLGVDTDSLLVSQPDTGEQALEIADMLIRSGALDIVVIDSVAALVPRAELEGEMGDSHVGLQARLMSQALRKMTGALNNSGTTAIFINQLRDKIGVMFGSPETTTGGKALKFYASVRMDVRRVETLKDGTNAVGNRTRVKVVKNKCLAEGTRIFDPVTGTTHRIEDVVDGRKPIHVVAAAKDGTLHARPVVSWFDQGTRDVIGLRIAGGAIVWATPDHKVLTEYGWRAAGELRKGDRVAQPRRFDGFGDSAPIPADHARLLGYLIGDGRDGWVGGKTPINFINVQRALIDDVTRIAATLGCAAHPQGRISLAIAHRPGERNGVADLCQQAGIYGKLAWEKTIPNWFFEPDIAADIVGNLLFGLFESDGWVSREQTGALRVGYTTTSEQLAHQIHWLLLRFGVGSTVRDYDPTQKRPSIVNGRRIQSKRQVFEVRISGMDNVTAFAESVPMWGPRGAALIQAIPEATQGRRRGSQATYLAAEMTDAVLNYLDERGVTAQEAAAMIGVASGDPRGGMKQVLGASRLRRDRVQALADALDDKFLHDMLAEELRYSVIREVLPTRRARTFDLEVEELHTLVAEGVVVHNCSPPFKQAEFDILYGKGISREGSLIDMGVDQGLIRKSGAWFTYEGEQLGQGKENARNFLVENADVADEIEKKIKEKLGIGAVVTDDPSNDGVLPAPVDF
Briefly: Fluorescence Cell-Free Homogeneous Dose Retest to Identify Inhibitors of RecA-Intein Splicing Activity. [Related pubchem assays (depositor defined):AID2097, AID2223, AID489010, AID492950]. In kind it is functional.

The target of test [14] is Tyrosine-protein phosphatase non-receptor type 11 (Homo sapiens, UniProt Q06124). Briefly: SHP2 phosphatase inhibition, dose response, selectivity assay for STEP inhibitor project, biochemical (AID 602367). Format: functional. As to conditions: read-out: IC50_Mean.
Test [15] concerns the target Tyrosine-protein phosphatase non-receptor type 5 (Homo sapiens, UniProt P54829). Put plainly: STEP phosphatase inhibitors, confirmation, biochemical, fluorescence intensity, uHTS hits (AID 602372). In kind it is functional. As to conditions: read-out: IC50_Mean.
For test [16], the target named is Dual specificity protein phosphatase 3 (Homo sapiens, UniProt P51452). Briefly: VHR phosphatase inhibition, dose response, selectivity assay for STEP inhibitor project, biochemical (AID 602374). In kind it is functional. As to conditions: read-out: IC50_Mean.
The target in test [17] is T5, Bifunctional protein GlmU (Mycobacterium tuberculosis, UniProt P9WMN3).
T5 sequence (P9WMN3 whole entry): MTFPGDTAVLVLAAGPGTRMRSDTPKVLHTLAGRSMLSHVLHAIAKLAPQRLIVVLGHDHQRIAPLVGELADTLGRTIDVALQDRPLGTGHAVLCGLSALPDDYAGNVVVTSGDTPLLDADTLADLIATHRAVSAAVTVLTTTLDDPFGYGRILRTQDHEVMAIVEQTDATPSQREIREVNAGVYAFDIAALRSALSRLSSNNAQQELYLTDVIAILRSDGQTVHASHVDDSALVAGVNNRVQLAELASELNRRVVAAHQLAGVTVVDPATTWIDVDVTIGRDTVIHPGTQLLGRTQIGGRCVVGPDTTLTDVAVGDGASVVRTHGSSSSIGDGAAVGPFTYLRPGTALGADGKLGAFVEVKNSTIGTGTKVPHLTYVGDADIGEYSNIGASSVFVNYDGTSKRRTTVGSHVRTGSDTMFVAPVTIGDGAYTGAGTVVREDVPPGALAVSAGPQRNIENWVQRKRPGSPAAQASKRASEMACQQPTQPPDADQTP
Briefly: Inhibitors of Mycobacterial Glucosamine-1-phosphate acetyl transferase (GlmU). Secondary screen. Details: species or system Mycobacterium tuberculosis H37Rv.

For test [18], the target named is DNA (cytosine-5)-methyltransferase 1 (Homo sapiens, UniProt P26358). Briefly: DNMT1 methyltransferase inhibitors, confirmation, biochemical, fluorescent molecular beacon (AID 602386). Format: functional.
The target of another test is NS3 (Hepatitis C virus, UniProt A3EZJ3). Briefly: PubChem AID 2173. Details: species or system Hepacivirus hominis.
In the next test the target is ORF 73 (Human herpesvirus 8, UniProt O40947). Briefly: inhibitors of C-LANA binding to LBS DNA, dose response, biochemical, fluorescence polarization, cherry-picked samples (AID 504725).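 Further: fluorescence polarization of a labeled DNA duplex reporting LANA DNA binding; potency is for inhibitors that block LANA binding to the DNA.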 On the set-up: species or system Human gammaherpesvirus 8. In general terms: Polarisation of emitted light reports the rotation of a fluorescent probe.
The target in test [19] is Eukaryotic translation initiation factor 4E (Mus musculus, UniProt P63073). Briefly: eIF4E–eIF4G protein interaction inhibitors, dose response, biochemical, TR-FRET (AID 855).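 Further: potency for disrupting eIF4E binding to eIF4GI seen as loss of FRET.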 In kind it is functional. For orientation: TR-FRET usually uses a lanthanide donor and a delayed reading to cut background.
Chain of Eukaryotic translation initiation factor 4E (P63073 whole entry): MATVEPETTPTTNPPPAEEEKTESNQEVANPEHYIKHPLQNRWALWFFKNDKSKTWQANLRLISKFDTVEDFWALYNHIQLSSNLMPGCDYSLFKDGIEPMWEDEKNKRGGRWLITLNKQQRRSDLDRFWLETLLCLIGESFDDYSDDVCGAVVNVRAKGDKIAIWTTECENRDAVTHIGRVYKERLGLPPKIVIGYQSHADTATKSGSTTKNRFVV
The target of test [20] is T6, Voltage-gated N-type calcium channel alpha-1B subunit/Amyloid beta A4 precursor protein-binding family A member 1 (Homo sapiens, UniProt Q00975+Q02410). In kind it is protein assay.
T6 sequence (Q00975 whole entry): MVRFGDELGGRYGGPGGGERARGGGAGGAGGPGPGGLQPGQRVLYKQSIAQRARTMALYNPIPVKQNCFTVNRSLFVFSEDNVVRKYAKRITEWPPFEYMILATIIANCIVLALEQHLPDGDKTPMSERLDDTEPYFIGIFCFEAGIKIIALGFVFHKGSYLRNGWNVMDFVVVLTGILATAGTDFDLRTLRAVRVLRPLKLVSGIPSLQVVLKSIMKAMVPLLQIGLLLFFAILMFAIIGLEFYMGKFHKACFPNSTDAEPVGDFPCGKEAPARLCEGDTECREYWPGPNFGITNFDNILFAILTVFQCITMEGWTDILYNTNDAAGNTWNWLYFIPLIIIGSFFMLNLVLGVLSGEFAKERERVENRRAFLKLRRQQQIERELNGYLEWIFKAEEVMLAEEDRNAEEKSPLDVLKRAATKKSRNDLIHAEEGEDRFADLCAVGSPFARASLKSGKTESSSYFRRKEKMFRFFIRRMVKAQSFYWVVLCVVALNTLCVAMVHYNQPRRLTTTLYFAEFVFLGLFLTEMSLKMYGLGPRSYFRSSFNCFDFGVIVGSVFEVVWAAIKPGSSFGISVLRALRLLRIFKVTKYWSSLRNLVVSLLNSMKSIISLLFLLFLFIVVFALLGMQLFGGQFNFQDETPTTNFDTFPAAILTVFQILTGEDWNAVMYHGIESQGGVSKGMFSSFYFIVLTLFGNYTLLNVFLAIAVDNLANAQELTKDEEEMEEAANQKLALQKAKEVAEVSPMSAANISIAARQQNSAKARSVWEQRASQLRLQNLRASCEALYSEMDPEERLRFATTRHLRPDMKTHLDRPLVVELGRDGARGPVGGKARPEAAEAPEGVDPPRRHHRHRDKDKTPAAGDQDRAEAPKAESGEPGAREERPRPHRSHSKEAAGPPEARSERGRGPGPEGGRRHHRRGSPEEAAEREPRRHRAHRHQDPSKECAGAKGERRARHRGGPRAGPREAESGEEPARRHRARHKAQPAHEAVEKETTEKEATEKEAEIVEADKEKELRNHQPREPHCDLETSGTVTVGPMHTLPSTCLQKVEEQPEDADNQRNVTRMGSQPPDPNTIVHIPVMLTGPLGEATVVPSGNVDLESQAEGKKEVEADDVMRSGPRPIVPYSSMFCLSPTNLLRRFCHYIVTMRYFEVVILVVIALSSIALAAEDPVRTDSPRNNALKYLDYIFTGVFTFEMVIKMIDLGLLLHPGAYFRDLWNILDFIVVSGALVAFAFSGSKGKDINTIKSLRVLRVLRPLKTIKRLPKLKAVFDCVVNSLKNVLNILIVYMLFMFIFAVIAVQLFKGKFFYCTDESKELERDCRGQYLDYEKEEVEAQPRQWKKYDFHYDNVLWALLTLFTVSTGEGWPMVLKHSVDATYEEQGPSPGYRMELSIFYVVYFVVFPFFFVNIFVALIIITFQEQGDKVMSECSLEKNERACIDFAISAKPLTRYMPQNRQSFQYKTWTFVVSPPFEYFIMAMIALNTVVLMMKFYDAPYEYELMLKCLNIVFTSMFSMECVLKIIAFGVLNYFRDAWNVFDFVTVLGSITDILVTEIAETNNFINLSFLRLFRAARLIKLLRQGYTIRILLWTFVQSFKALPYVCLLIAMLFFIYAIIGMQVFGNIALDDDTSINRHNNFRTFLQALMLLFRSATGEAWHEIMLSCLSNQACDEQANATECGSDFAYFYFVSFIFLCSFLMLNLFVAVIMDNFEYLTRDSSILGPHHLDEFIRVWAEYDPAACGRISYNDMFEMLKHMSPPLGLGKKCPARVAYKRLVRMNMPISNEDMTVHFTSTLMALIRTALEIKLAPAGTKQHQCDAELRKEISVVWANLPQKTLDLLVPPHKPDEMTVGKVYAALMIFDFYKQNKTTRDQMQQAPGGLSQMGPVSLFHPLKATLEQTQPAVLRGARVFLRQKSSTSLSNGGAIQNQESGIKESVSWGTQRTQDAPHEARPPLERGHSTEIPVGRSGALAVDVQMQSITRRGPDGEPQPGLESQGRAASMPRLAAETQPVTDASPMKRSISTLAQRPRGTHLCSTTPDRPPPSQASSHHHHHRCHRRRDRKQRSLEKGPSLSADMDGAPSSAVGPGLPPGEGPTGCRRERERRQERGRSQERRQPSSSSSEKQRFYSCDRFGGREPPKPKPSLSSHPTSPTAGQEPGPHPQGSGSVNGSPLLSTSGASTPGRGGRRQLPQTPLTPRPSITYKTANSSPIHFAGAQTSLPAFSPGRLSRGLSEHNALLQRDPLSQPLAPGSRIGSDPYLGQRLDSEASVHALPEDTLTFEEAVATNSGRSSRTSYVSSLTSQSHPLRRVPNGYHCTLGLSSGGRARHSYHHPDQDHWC
T6 sequence (Q02410 whole entry): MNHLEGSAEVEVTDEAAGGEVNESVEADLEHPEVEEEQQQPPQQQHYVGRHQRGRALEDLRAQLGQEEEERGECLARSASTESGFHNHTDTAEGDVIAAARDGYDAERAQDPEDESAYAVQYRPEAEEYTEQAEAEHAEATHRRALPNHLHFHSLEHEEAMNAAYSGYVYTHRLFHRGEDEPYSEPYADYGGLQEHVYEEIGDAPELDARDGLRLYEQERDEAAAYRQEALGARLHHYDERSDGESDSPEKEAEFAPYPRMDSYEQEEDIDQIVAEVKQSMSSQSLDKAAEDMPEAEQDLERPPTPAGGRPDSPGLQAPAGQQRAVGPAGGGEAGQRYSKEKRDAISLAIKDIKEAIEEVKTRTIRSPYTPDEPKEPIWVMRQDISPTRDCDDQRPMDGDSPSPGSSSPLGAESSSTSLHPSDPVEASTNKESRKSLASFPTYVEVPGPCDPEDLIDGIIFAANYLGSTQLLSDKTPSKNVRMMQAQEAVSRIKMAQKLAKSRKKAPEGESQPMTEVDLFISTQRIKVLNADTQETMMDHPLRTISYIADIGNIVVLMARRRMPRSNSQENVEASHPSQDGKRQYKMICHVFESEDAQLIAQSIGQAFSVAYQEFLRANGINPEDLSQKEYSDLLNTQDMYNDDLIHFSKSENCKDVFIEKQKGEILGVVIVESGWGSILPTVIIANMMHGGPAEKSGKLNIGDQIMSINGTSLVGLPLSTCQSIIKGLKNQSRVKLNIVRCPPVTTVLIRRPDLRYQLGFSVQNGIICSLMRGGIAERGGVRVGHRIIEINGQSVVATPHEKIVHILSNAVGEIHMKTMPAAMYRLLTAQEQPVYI
Test [21] has as its target T6, Voltage-gated N-type calcium channel alpha-1B subunit/Amyloid beta A4 precursor protein-binding family A member 1. Format: protein assay. This is another data set of the same source.
The target in test [22] is Induced myeloid leukemia cell differentiation protein Mcl-1 (Homo sapiens, UniProt Q07820). Format: functional.
Chain of Induced myeloid leukemia cell differentiation protein Mcl-1 (Q07820 whole entry): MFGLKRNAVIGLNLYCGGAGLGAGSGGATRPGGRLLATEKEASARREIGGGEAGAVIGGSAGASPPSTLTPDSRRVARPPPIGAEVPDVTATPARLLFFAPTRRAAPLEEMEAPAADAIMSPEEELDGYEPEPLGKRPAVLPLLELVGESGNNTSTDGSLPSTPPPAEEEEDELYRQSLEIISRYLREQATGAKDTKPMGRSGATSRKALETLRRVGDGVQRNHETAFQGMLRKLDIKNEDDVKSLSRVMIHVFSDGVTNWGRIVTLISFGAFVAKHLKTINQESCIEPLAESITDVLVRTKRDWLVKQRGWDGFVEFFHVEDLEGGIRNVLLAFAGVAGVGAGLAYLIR

Chain of Tyrosine-protein phosphatase non-receptor type 5 (P54829 whole entry): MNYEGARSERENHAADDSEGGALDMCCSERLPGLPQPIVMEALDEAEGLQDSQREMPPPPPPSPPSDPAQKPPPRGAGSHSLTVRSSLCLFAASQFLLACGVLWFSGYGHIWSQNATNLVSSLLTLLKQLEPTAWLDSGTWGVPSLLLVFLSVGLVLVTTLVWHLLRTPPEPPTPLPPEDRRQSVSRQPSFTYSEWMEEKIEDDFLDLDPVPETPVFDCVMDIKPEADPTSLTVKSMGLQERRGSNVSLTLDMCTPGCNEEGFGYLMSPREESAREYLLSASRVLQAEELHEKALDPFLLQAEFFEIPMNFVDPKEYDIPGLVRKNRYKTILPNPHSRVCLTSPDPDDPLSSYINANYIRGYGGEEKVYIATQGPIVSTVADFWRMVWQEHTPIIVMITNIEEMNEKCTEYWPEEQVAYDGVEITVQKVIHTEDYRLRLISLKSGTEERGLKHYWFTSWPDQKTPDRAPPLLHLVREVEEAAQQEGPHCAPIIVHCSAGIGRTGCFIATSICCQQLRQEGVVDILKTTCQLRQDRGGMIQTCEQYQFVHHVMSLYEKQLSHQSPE

`Cc1nc2c(o1)C(=O)c1ccccc1C2=Nc1ccccc1`: the IC50 in [1] is > 80 µM (inactive); in test [6] it was 155 µM (inactive). Further, the AC50 in test [2] was 4.25 µM (active); in test [3], 3.45 µM (active); in test [4], 2.74 µM (active); in test [5], 5.92 µM (active); in test [7] it was 4.8 µM (active).
With `NC1=C(Br)C(=O)c2ccccc2C1=O`, the EC50 in test [8] was 61.9 µM (inactive); in test [9], > 120 µM (not active); in [12], > 60 µM (not active); in test [13], > 60 µM (not active); on Protein RecA, 2.99 µM (active). Moreover, the AC50 is 10 µM (active) in [10], 2.95 µM (active) in test [11] and 6.52 µM (active) in the test on INS1.
Turning to `Sc1nnc(-c2cccnc2)n1/N=C/c1ccc(Br)s1`, the IC50 is 4.66 µM (active) in [14], > 80 µM (inactive) in test [15] and 4.27 µM (active) in test [16].
Take `O=C(O)c1ccc(-n2cccc2/C=C2/NC(=O)N(c3cccc(Cl)c3)C2=O)cc1`: the IC50 in [17] was 66.8 µM (active); in test [18], 4.62 µM (active); on NS3, 6.07 µM (active); in test [19] it was 50 µM (inactive); in test [20], 3.28 µM (active); in test [21], 48.1 µM (active). Besides, the IC50 in test [22] was 6.34 µM (active). For the same molecule, the AC50 on ORF 73 was 86.8 µM (active).
